Test results taken from PubChem BioAssay (NCI).
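Five concentrations, 48 hours, 96-well plates. Definition used: TGI = concentration required for complete inhibition of growth.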 Where a SMILES comes first, the peptide text is derived from it. Bridges are numbered along the chain shown (N, C = ends). [ ]: non-standard residue; d: D form. The star is where a group is joined. ξ: configuration not given here. X26 = O=C(/C=C/C=C/C=C/C=C/C=C/C(=O)*)NC1=C(O)CCC1=O; Pro(4R-Me) = C[C@H]1CN[C@H](C(=O)O)C1; NMeA = CN[C@@H](C)C(=O)O; ξF = NC(Cc1ccccc1)C(=O)O; ξA = CC(N)C(=O)O

Assays:
Assay in all cases: NCI anticancer screen, dose series, 48 h
786-0 renal = system: 786-0 renal
A498 renal = system: A498 renal
A549 NSCLC = system: A549 NSCLC
ACHN renal = system: ACHN renal
BT-549 breast = system: BT-549 breast
CCRF-CEM leukemia = system: CCRF-CEM leukemia
COLO 205 colon = system: COLO 205 colon
DU-145 prostate = system: DU-145 prostate
EKVX NSCLC = system: EKVX NSCLC
HCC-2998 colon = system: HCC-2998 colon
HCT-116 colon = system: HCT-116 colon
HCT-15 colon = system: HCT-15 colon
HL-60(TB) leukemia = system: HL-60(TB) leukemia
HOP-62 NSCLC = system: HOP-62 NSCLC
HOP-92 NSCLC = system: HOP-92 NSCLC
HS 578T breast = system: HS 578T breast
HT29 colon = system: HT29 colon
IGROV1 ovarian = system: IGROV1 ovarian
K-562 leukemia = system: K-562 leukemia
KM12 colon = system: KM12 colon
LOX IMVI melanoma = system: LOX IMVI melanoma
M14 melanoma = system: M14 melanoma
MALME-3M melanoma = system: MALME-3M melanoma
MCF7 breast = system: MCF7 breast
MDA-MB-231 breast = system: MDA-MB-231 breast
MDA-MB-435 = system: MDA-MB-435
MDA-N = system: MDA-N
MOLT-4 leukemia = system: MOLT-4 leukemia
NCI-H23 lung = system: NCI-H23 lung
NCI-H460 lung = system: NCI-H460 lung
NCI-H522 lung = system: NCI-H522 lung
NCI/ADR-RES ovarian = system: NCI/ADR-RES ovarian
OVCAR-3 ovarian = system: OVCAR-3 ovarian
OVCAR-4 ovarian = system: OVCAR-4 ovarian
OVCAR-5 ovarian = system: OVCAR-5 ovarian
OVCAR-8 ovarian = system: OVCAR-8 ovarian
PC-3 prostate = system: PC-3 prostate
RPMI-8226 leukemia = system: RPMI-8226 leukemia
RXF 393 renal = system: RXF 393 renal
SF-268 CNS = system: SF-268 CNS
SF-295 CNS = system: SF-295 CNS
SF-539 CNS = system: SF-539 CNS
SK-MEL-2 melanoma = system: SK-MEL-2 melanoma
SK-MEL-28 melanoma = system: SK-MEL-28 melanoma
SK-MEL-5 melanoma = system: SK-MEL-5 melanoma
SK-OV-3 ovarian = system: SK-OV-3 ovarian
SN12C renal = system: SN12C renal
SNB-19 CNS = system: SNB-19 CNS
SNB-75 CNS = system: SNB-75 CNS
SR leukemia = system: SR leukemia
SW-620 colon = system: SW-620 colon
T-47D breast = system: T-47D breast
TK-10 renal = system: TK-10 renal
U251 CNS = system: U251 CNS
UACC-257 melanoma = system: UACC-257 melanoma
UACC-62 melanoma = system: UACC-62 melanoma
UO-31 renal = system: UO-31 renal
CAKI-1 renal = system: CAKI-1 renal

Clc1cc(OC23CC4CC(CC(C4)C2)C3)nc(Cl)n1
TGI (786-0 renal): > 100 µM | TGI (A498 renal): > 100 µM | TGI (A549 NSCLC): > 100 µM | TGI (ACHN renal): > 100 µM | TGI (BT-549 breast): > 100 µM | TGI (CCRF-CEM leukemia): 86.2 µM | TGI (COLO 205 colon): > 100 µM | TGI (DU-145 prostate): > 100 µM | TGI (EKVX NSCLC): > 100 µM | TGI (HCC-2998 colon): 29.6 µM | TGI (HCT-116 colon): > 100 µM | TGI (HCT-15 colon): > 100 µM | TGI (HL-60(TB) leukemia): 29.7 µM | TGI (HOP-62 NSCLC): > 100 µM | TGI (HOP-92 NSCLC): 3.5 µM | TGI (HS 578T breast): 54.3 µM | TGI (HT29 colon): > 100 µM | TGI (IGROV1 ovarian): > 100 µM | TGI (K-562 leukemia): > 100 µM | TGI (KM12 colon): > 100 µM | TGI (LOX IMVI melanoma): 36.1 µM | TGI (M14 melanoma): > 100 µM | TGI (MALME-3M melanoma): > 100 µM | TGI (MCF7 breast): > 100 µM | TGI (MDA-MB-231 breast): > 100 µM | TGI (MDA-MB-435): > 100 µM | TGI (MDA-N): > 100 µM | TGI (MOLT-4 leukemia): > 100 µM | TGI (NCI-H23 lung): > 100 µM | TGI (NCI-H460 lung): > 100 µM | TGI (NCI-H522 lung): > 100 µM | TGI (NCI/ADR-RES ovarian): > 100 µM | TGI (OVCAR-3 ovarian): > 100 µM | TGI (OVCAR-4 ovarian): > 100 µM | TGI (OVCAR-5 ovarian): > 100 µM | TGI (OVCAR-8 ovarian): > 100 µM | TGI (PC-3 prostate): > 100 µM | TGI (RPMI-8226 leukemia): > 100 µM | TGI (RXF 393 renal): 85.8 µM | TGI (SF-268 CNS): > 100 µM | TGI (SF-295 CNS): > 100 µM | TGI (SF-539 CNS): > 100 µM | TGI (SK-MEL-2 melanoma): > 100 µM | TGI (SK-MEL-28 melanoma): > 100 µM | TGI (SK-MEL-5 melanoma): > 100 µM | TGI (SK-OV-3 ovarian): > 100 µM | TGI (SN12C renal): > 100 µM | TGI (SNB-19 CNS): > 100 µM | TGI (SNB-75 CNS): > 100 µM | TGI (SR leukemia): 48.4 µM | TGI (SW-620 colon): > 100 µM | TGI (T-47D breast): > 100 µM | TGI (TK-10 renal): > 100 µM | TGI (U251 CNS): > 100 µM | TGI (UACC-257 melanoma): > 100 µM | TGI (UACC-62 melanoma): > 100 µM | TGI (UO-31 renal): 87.5 µM

CC1NC(=O)[C@H](C)N(C)C(=O)[C@@H]2CCCN2C(=O)[C@@H](NC(=O)C(Cc2ccccc2)NC(=O)/C=C/C=C/C=C/C=C/C=C/C(=O)NC2=C(O)CCC2=O)COC(=O)[C@@H]2C[C@@H](C)CN2C1=O (stereo partly drawn) (X26-[ξF]SP[NMeA][ξA][Pro(4R-Me)]; ester 2-C)
TGI (786-0 renal): > 100 µM | TGI (A498 renal): > 100 µM | TGI (A549 NSCLC): > 100 µM | TGI (ACHN renal): > 100 µM | TGI (BT-549 breast): > 100 µM | TGI (CAKI-1 renal): > 100 µM | TGI (CCRF-CEM leukemia): > 100 µM | TGI (COLO 205 colon): > 100 µM | TGI (DU-145 prostate): > 100 µM | TGI (EKVX NSCLC): > 100 µM | TGI (HCC-2998 colon): > 100 µM | TGI (HCT-116 colon): > 100 µM | TGI (HCT-15 colon): > 100 µM | TGI (HL-60(TB) leukemia): > 100 µM | TGI (HOP-62 NSCLC): > 100 µM | TGI (HOP-92 NSCLC): > 100 µM | TGI (HS 578T breast): > 100 µM | TGI (HT29 colon): > 100 µM | TGI (IGROV1 ovarian): > 100 µM | TGI (K-562 leukemia): > 100 µM | TGI (KM12 colon): > 100 µM | TGI (LOX IMVI melanoma): > 100 µM | TGI (M14 melanoma): > 100 µM | TGI (MALME-3M melanoma): > 100 µM | TGI (MCF7 breast): > 100 µM | TGI (MDA-MB-231 breast): > 100 µM | TGI (MDA-MB-435): > 100 µM | TGI (MDA-N): > 100 µM | TGI (NCI-H23 lung): > 100 µM | TGI (NCI-H460 lung): > 100 µM | TGI (NCI-H522 lung): > 100 µM | TGI (NCI/ADR-RES ovarian): > 100 µM | TGI (OVCAR-3 ovarian): > 100 µM | TGI (OVCAR-4 ovarian): > 100 µM | TGI (OVCAR-5 ovarian): > 100 µM | TGI (PC-3 prostate): > 100 µM | TGI (RPMI-8226 leukemia): > 100 µM | TGI (RXF 393 renal): > 100 µM | TGI (SF-268 CNS): > 100 µM | TGI (SF-295 CNS): > 100 µM | TGI (SF-539 CNS): > 100 µM | TGI (SK-MEL-2 melanoma): > 100 µM | TGI (SK-MEL-28 melanoma): > 100 µM | TGI (SK-MEL-5 melanoma): > 100 µM | TGI (SK-OV-3 ovarian): > 100 µM | TGI (SN12C renal): > 100 µM | TGI (SNB-19 CNS): > 100 µM | TGI (SNB-75 CNS): > 100 µM | TGI (SR leukemia): > 100 µM | TGI (SW-620 colon): > 100 µM | TGI (T-47D breast): > 100 µM | TGI (TK-10 renal): > 100 µM | TGI (U251 CNS): > 100 µM | TGI (UACC-257 melanoma): > 100 µM | TGI (UACC-62 melanoma): > 100 µM | TGI (UO-31 renal): > 100 µM
